# Source: patent US20130158112A1, “COMPOSITIONS AND METHODS FOR INHIBITING BETA AMYLOID SECRETION” (priority 2011, published 2013)
# Entries after “also recorded” stand apart in the source; their conditions may differ. Read-outs that look alike come from different tables or passages of the source.
# Key:
# Aβ secretion [1] = test: Secreted Aβ in cultured primary neurons from APP/PS1 transgenic mice; assay type: cell-based, mouse; conditions: 24 h incubation
# Method: H4βAPP695 wt cells, a human […] cell line stably transfected with a wtβAPP695 expression vector construct under the control of a CMV promoter (kindly provided by Dr. Chris Eckman from Mayo Clinic, Florida) were cultured as previously described. Twenty-four hours before drug treatment, the media was replaced with serum-free media. Cells were then incubated with drugs (dissolved in DMSO) or vehicle for 24 h for collection of conditioned media and cell lysates. For the PKC inhibitors experiment, three inhibitors were treated 30 min prior to drug challenge. Primary cortical neurons were prepared from embryonic day 18 APP and presenilin 1 (APPswe, PSEN1dE9) transgenic mice on the C57BL/6 genetic background (Jackson Laboratories, strain no. 5864) as previously described. THLE-3 human hepatoma cells (from ATCC) were plated in 24-well plates that were precoated with 10 μg/mL bovine serum albumin, 10 μg/mL fibronectin, and 30 μg/mL bovine type I collagen. […] Transepithelial resistance was measured in each well and found to be >160 Ω/cm^2. […] Four hours later, the basal chamber media was harvested and used to measure lucifer yellow fluorescence to confirm monolayer integrity as well as for treatment of H4βAPP695 wt cells for 24 h prior to analysis of secreted Aβ, which was compared to the effect of direct addition of 10 μM of the corresponding drug.
# ADAM17 = test: Western blot of pro and active ADAM17 in H4βAPP695 wt cells; assay type: cell-based, human; conditions: increasing concentrations, 24 h
# Method: (§1) Several members of the ADAM (a disintegrin and metalloproteinase) family, ADAM9, ADAM10, and ADAM17, have been reported to have α-secretase activity. […] Using antibodies specific for these three ADAM proteases, we assessed the levels of the pro and active forms in cells cultured with increasing concentrations of compound 1. […] At the 10 μM dose of compound 1, we observed a 31% increase in the ratio of active/pro ADAM9 (p<0.05), N=3 each control and compound 1) and a 42% increase in the ratio active/pro ADAM10 (p<0.05). Although the direct target for compound 1 has not been identified, it seems likely that its mechanism is via the increased ADAM 9 and ADAM10 processing into active α-secretase, which cleaves APP in a manner that precludes Aβ production.
# ADAM9 = test: Western blot of pro and active ADAM9 in H4βAPP695 wt cells; assay type: cell-based, human; conditions: 24 h
# Method: as §1
# ADAM10 = test: Western blot of pro and active ADAM10 in H4βAPP695 wt cells; assay type: cell-based, human; conditions: 24 h
# Method: as §1
# α-secretase = test: α-Secretase activity, compound added directly to cell lysates; assay type: biochemical, human; conditions: added to lysates rather than live cells
# Method: H4βAPP695 wt were treated with vehicle or 1 for 24 h, washed with ice cold PBS, and lysed in extraction buffer provided with the α-secretase assay kit (R&D Systems) for 10 min on ice and centrifuged at 10000 g for 1 min to remove nuclei. Protein content of the supernatant was determined by the BCA assay, and 50 μg of lysate protein were added to wells of a 96-well assay plate and the volume was adjusted to 100 μL using the lysis buffer. 100 μL of reaction buffer and 10 μL of the fluorogenic substrate were added, and the plates were incubated at 37° C. in the dark with gentle agitation for 2 h. Activity was detected in a fluorescence plate reader using an excitation of 355 nm and an emission of 510 nm after subtraction of fluorescence in the absence of cell lysate.
# We measured the activity of α-secretase using a fluorogenic peptide substrate in lysates of H4βAPP695 wt cells. […] However, addition of compound 1 directly to the cell lysates, rather than to the live cells, had no effect on α-secretase activity (data not shown), implying an indirect cellular activation of this pathway rather than direct activation of the α-secretase protease by compound 1.
# H4βAPP695 wt cells = test: Cytotoxicity by total cell protein content (BCA) of H4βAPP695 wt cells; conditions: 10 μM
# APP [2] = test: Western blot of APP processing products (sAPPα, sAPPβ, holoAPP, αCTF) in H4βAPP695 wt cells; assay type: cell-based, human
# APP [3] = test: as above; assay type: cell-based, human; conditions: 10 μM, 24 h
# Method: The alternate processing of holoAPP by either the β-secretase (a precursor to Aβ production) or α-secretase (which clips in the middle of the Aβ region) is shown in FIG. 2A. Compound 1 induced decrease in total Aβ secretion may be due to its effect on APP processing or due to decreased production of its precursor APP. To probe its mechanism, H4βAPP695 wt cells were treated with 10 μM 1 for 24 h. Using Western blot assays, we measured secreted APPα (sAPPα) and APPβ (sAPPβ) in the conditioned media, and full-length holo-APP and the 83 residue long α-C-terminal fragment (α-CTF) in cell lysate. […] Thus, 1 appears to decrease Aβ secretion by activating the α-secretase pathway, a favorable pathway as the large secreted sAPPα protein is reported to have neurotrophic and neuroprotective activities.
# Aβ secretion [4] = test: PKC inhibitors experiment on Aβ secretion; assay type: cell-based, human
# Method: (§2) H4βAPP695 wt cells, a human […] cell line stably transfected with a wtβAPP695 expression vector construct under the control of a CMV promoter (kindly provided by Dr. Chris Eckman from Mayo Clinic, Florida) were cultured as previously described. Twenty-four hours before drug treatment, the media was replaced with serum-free media. Cells were then incubated with drugs (dissolved in DMSO) or vehicle for 24 h for collection of conditioned media and cell lysates. For the PKC inhibitors experiment, three inhibitors were treated 30 min prior to drug challenge. Primary cortical neurons were prepared from embryonic day 18 APP and presenilin 1 (APPswe, PSEN1dE9) transgenic mice on the C57BL/6 genetic background (Jackson Laboratories, strain no. 5864) as previously described. THLE-3 human hepatoma cells (from ATCC) were plated in 24-well plates that were precoated with 10 μg/mL bovine serum albumin, 10 μg/mL fibronectin, and 30 μg/mL bovine type I collagen. The cells were grown in BEGM media (Clonetics) until confluent and treated with drugs at 20 μM for 24 h. This conditioned media was harvested, diluted 1:1 in serum-free medium, and incubated with H4βAPP695 wt cells for 24 h prior to analysis of secreted Aβ, which was compared to the effect of 10 μM drug treatments without prior incubation with the THLE-3 cells. Caco-2 cells (ATCC) were plated in 12-well plates with Transwell inserts (Costar) at 70000 cells per well and grown for 21 days. The media volume of the apical and basal chambers was 0.5 and 1.5 mL, respectively. Transepithelial resistance was measured in each well and found to be >160 Ω/cm^2. Drugs at 40 μM and 20 μg/mL of lucifer yellow were added in serum-free medium to the apical chamber. Four hours later, the basal chamber media was harvested and used to measure lucifer yellow fluorescence to confirm monolayer integrity as well as for treatment of H4βAPP695 wt cells for 24 h prior to analysis of secreted Aβ, which was compared to the effect of direct addition of 10 μM of the corresponding drug.
# The tumor promoter phorbal myristate acetate is an activator of protein kinase C (PKC) that has been reported to activate α-secretase activity. Thus, we wanted to determine if protein kinase C inhibitors could block the effect of compound 1 on Aβ secretion.
# Aβ secretion [5] = test: Secreted total Aβ ELISA in conditioned media of H4βAPP695 wt cells; assay type: cell-based, human; conditions: H4βAPP695 wt cells
# Summary of the method: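 H4 […] cells stably expressing wild-type βAPP695 (CMV promoter), serum-starved 24 h, then exposed to drug in DMSO or vehicle for 24 h before Aβ in conditioned media was measured. Primary cortical neurons came from E18 APPswe/PSEN1dE9 mice on C57BL/6 background.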
# [6] = tested on: THLE-3 human hepatoma cells; test: Drug activity persistence after incubation with THLE-3 hepatoma cells; assay type: in vitro ADME; conditions: Homo sapiens, THLE3, 24 h
# Method: as §2
# To screen for resistance to metabolism, 1 and eight noncytotoxic analogues with >50% Aβ reducing activity (compounds 27, 29, 48, 52, 53, 65, 73, and 76) were incubated at 20 μM for 24 h with or without THLE-3 human hepatoma cells.
compound,measurement,setting,value
O=C(NCCSCc1cccc(Cl)c1)c1c(Cl)cccc1Cl [Compound 1],secreted Aβ levels in primary neurons,Aβ secretion [1],effective in reducing secreted Aβ levels
same,active form of ADAM17,ADAM17,did not observe much effect
same,increase in the ratio of active/pro ADAM9,ADAM9; 10 μM,31%
same,active ADAM9 / processing of ADAM9,ADAM9; increasing doses,dose dependent increase; also recorded: promotes cellular processing
same,increase in the ratio active/pro ADAM10,ADAM10; 10 μM,42%
same,active ADAM10 / processing of ADAM10,ADAM10; increasing doses,dose dependent increase; also recorded: promotes cellular processing
same,α-secretase activity on direct addition to cell lysates,α-secretase,no effect
same,"cytotoxicity, measured by total cell protein content",H4βAPP695 wt cells,did not have significant cytotoxicity
same,time at which α-CTF increase is first observed,APP [2]; 10 μM,2 h
same,time to maximal α-CTF levels,APP [2]; 10 μM,≤ 8 h
same,increase in cellular α-CTF in presence of cyclohexamide,APP [2]; 4 h treatment,not blocked
same,cellular full length (holo) APP level,APP [3],without altering holoAPP levels
same,increase of cellular α-CTF levels,APP [3],over 2 fold
same,increase of sAPPα levels,APP [3],over 3 fold
same,sAPPα level,APP [3],caused an increase; also recorded: increased
same,sAPPβ level,APP [3],without altering
same,αCTF level,APP [3],caused an increase; also recorded: increased
same,effect on Aβ secretion in presence of PKC inhibitors,Aβ secretion [4],not blocked by PKC inhibitors
same,Aβ lowering activity,Aβ secretion [5]; 1 μM,displayed Aβ lowering activity at 1 μM
same,% β Decrease,"Aβ secretion [5]; 10 μM, relative to vehicle treated control cells",75.3%
same,inhibition at 10 µM,"Aβ secretion [5]; Homo sapiens, 24 h, 10 μM, relative to vehicle treated control cells, read-out: % β Decrease",75.3 ± 11.6%
same,inhibition at 10 µM,"[6]; 10 μM on H4 cells, without preincubation with hepatoma cells, read-out: hepatoma incubation No total Aβ (% decrease)",69.4%
same,inhibition at 10 µM,"[6]; 20 μM preincubated 24 h with THLE-3 hepatoma cells, diluted to 10 μM on H4 cells, read-out: hepatoma incubation Yes total Aβ (% decrease)",34.6%
